According to US8716493B2, “Multicyclic compounds and the use thereof” (Cephalon, Inc., priority 2000, dated 2014):

These molecules were tested against recombinant human PARP (Homo sapiens, UniProt P09874) (assay: Measurement of PARP enzymatic activity (transfer of radiolabeled ADP-ribose from NAD+ to protein acceptor)). Conditions: PARP IC50 (nM), Table 2.
Type: biochemical
Experimental: PARP activity was monitored by transfer of radiolabeled ADP-ribose units from [^32]NAD^+ to a protein acceptor such as histone or PARP itself. […] The reactions were initiated by the addition of 100 μM NAD^+ supplemented with 2 uCi [^32]NAD^+/mL and maintained at room temperature for 12 minutes. […] The amount of acid-insoluble radioactivity, corresponding to polyADP-ribosylated protein, was quantitated in a Wallac MicroBeta scintillation counter.
Single-point inhibition data were calculated by comparing PARP, VEGFR2, or MLK3 activity in the presence of inhibitor to activity in the presence of DMSO only. Inhibition curves for compounds were generated by plotting percent inhibition versus log10 of the concentration of compound. IC50 values were calculated by nonlinear regression using the sigmoidal dose-response (variable slope) equation in GraphPad Prism as follows: y=bottom+(top−bottom)/(1+10^(log IC50^−x)*Hillslope) where y is the % activity at a given concentration of compound, x is the logarithm of the concentration of compound, bottom is the % inhibition at the lowest compound concentration tested, and top is the % inhibition at the highest compound concentration examined. The values for bottom and top were fixed at 0 and 100, respectively. IC50 values were reported as the average of at least three separate determinations.
For some compounds, inhibiting data is presented as percent inhibition at a specified concentration. Compounds are tabulated together with compound number, substituents, and enzyme inhibition data.

Sequence of recombinant human PARP (P09874 whole entry): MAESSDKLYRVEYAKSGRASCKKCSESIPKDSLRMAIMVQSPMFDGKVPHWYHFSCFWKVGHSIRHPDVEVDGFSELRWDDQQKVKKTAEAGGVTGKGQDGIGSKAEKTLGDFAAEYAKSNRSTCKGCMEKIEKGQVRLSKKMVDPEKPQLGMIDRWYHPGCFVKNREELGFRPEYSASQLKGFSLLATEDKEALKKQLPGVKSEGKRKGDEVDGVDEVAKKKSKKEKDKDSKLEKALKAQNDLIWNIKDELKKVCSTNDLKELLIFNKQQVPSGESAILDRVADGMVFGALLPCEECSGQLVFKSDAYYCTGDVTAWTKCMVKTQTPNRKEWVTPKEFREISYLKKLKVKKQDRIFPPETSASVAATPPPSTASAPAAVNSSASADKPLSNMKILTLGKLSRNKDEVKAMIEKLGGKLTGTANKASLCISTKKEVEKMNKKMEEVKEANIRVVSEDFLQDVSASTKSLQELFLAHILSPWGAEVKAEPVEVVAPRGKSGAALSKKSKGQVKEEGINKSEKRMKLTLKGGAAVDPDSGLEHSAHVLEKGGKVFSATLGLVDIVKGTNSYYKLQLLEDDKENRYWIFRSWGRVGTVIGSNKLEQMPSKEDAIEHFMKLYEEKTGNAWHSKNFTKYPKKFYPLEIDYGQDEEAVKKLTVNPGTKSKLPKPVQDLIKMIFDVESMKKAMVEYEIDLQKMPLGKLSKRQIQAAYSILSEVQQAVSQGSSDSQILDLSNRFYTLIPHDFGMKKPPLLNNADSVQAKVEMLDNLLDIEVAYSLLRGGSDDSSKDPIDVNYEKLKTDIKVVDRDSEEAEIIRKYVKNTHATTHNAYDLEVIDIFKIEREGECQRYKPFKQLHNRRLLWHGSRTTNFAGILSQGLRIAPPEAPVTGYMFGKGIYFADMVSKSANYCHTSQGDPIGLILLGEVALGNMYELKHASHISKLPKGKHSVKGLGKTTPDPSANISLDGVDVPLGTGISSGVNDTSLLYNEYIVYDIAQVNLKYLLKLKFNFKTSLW

SMILES | IC50 [nM]
O=C(NCc1nc(-c2ccc3[nH]c4c5c(c6c(c4c3c2)C(=O)NC6=O)CCC5)cs1)OCc1ccccc1 [Compound 3j] | 20
O=C1NC(=O)c2c1c1c(c3[nH]c4ccc(-c5csc(CNC(=O)C6CC6)n5)cc4c23)CCC1 [Compound 3w] | 49
O=C1NC(=O)c2c1c1c(c3[nH]c4ccc(-c5csc(CNC(=O)C6CCCC6)n5)cc4c23)CCC1 [Compound 3x] | 52

Same assay, conditions: Table 2; read-out: PARP IC50

SMILES | IC50 [nM]
O=C(NCc1ccc2[nH]c3c4c(c5c(c3c2c1)C(=O)NC5=O)CCC4)c1ccccc1 [Compound 2u, 3-(Benzoylaminomethyl)-5,7,8,9,10,11-hexahydrocyclopent[a]pyrrolo[3,4-c]carbazole-5(6H), 7-dione] | 37
CC(C)(C)OC(=O)NCC(=O)NCc1ccc2[nH]c3c4c(c5c(c3c2c1)C(=O)NC5=O)CCC4 [Compound 2v, 3-(N-(2-(N-Boc-amino)acetyl)aminomethyl)-5,7,8,9,10,11-hexahydrocyclopent[a]pyrrolo[3,4-c]carbazole-5(6H), 7-dione] | 33
CC(C)(C)OC(=O)NCCCC(=O)NCc1ccc2[nH]c3c4c(c5c(c3c2c1)C(=O)NC5=O)CCC4 [Compound 2w, 3-(N-(4-(N-Boc-amino)butanoyl)aminomethyl)-5,7,8,9,10,11-hexahydrocyclopent[a]pyrrolo[3,4-c]carbazole-5(6H), 7-dione] | 33
NCC(=O)NCc1ccc2[nH]c3c4c(c5c(c3c2c1)C(=O)NC5=O)CCC4 [Compound 2x, 3-(N-(2-(Amino)acetyl)aminomethyl)-5,7,8,9,10,11-hexahydrocyclopent[a]pyrrolo[3,4-c]carbazole-5(6H), 7-dione] | 45
NCCCC(=O)NCc1ccc2[nH]c3c4c(c5c(c3c2c1)C(=O)NC5=O)CCC4 [Compound 2y, 3-(N-(4-(Amino)butanoyl)aminomethyl)-5,7,8,9,10,11-hexahydrocyclopent[a]pyrrolo[3,4-c]carbazole-5(6H), 7-dione] | 54
COC(=O)CCC(=O)NCc1ccc2[nH]c3c4c(c5c(c3c2c1)C(=O)NC5=O)CCC4 [Compound 2z, 3-(N-(3-(Methoxycarbonyl)propanoyl)aminomethyl)-5,7,8,9,10,11-hexahydrocyclopent[a]pyrrolo[3,4-c]carbazole-5(6H), 7-dione] | 10
Nc1nc(-c2ccc3[nH]c4c5c(c6c(c4c3c2)C(=O)NC6=O)CCC5)cs1 [Compound 3a] | 25
O=C1NC(=O)c2c1c1c(c3[nH]c4ccc(-c5csc(NC6OC(CO)C(O)C(O)C6O)n5)cc4c23)CCC1 (stereo not drawn) [Compound 3ab] | 17
Cc1nc(-c2ccc3[nH]c4c5c(c6c(c4c3c2)C(=O)NC6=O)CCC5)cs1 [Compound 3b] | 40
Cc1nc(-c2ccc3[nH]c4c5c(c6c(c4c3c2)C(=O)NC6=O)CCC5)c(Br)s1 [Compound 3c] | 84
Cc1sc(N)nc1-c1ccc2[nH]c3c4c(c5c(c3c2c1)C(=O)NC5=O)CCC4 [Compound 3d] | 50
CC(C)(C)OC(=O)N[C@@H](CCCNc1nc(-c2ccc3[nH]c4c5c(c6c(c4c3c2)C(=O)NC6=O)CCC5)cs1)C(=O)OC(C)(C)C [Compound 3e] | 46
NC(CCCNc1nc(-c2ccc3[nH]c4c5c(c6c(c4c3c2)C(=O)NC6=O)CCC5)cs1)C(=O)O (stereo not drawn) [Compound 3f] | 22
NC(N)=Nc1nc(-c2ccc3[nH]c4c5c(c6c(c4c3c2)C(=O)NC6=O)CCC5)cs1 [Compound 3g] | 19
CNc1nc(-c2ccc3[nH]c4c5c(c6c(c4c3c2)C(=O)NC6=O)CCC5)cs1 [Compound 3h] | 54
CC(=O)Nc1nc(-c2ccc3[nH]c4c5c(c6c(c4c3c2)C(=O)NC6=O)CCC5)cs1 [Compound 3i] | 54
NCc1nc(-c2ccc3[nH]c4c5c(c6c(c4c3c2)C(=O)NC6=O)CCC5)cs1 [Compound 3k] | 42
CC(=O)Nc1nc(-c2ccc3[nH]c4c5c(c6c(c4c3c2)C(=O)NC6=O)CCC5)c[nH]1 [Compound 3l] | 47
CC(=O)NCc1nc(-c2ccc3[nH]c4c5c(c6c(c4c3c2)C(=O)NC6=O)CCC5)cs1 [Compound 3n] | 20
CCNC(=O)NCc1nc(-c2ccc3[nH]c4c5c(c6c(c4c3c2)C(=O)NC6=O)CCC5)cs1 [Compound 3o] | 20
CC(C)(C)S(=O)(=O)Cc1nc(-c2ccc3[nH]c4c5c(c6c(c4c3c2)C(=O)NC6=O)CCC5)cs1 [Compound 3p] | 21

SMILES | IC50 [nM]
CC(C)(C)OC(=O)Cc1nc(-c2ccc3[nH]c4c5c(c6c(c4c3c2)C(=O)NC6=O)CCC5)cs1 [Compound 3q] | 29
CC(C)CC(=O)NCc1nc(-c2ccc3[nH]c4c5c(c6c(c4c3c2)C(=O)NC6=O)CCC5)cs1 [Compound 3r] | 56
CCC(=O)NCc1nc(-c2ccc3[nH]c4c5c(c6c(c4c3c2)C(=O)NC6=O)CCC5)cs1 [Compound 3s] | 56
CC(C)C(=O)NCc1nc(-c2ccc3[nH]c4c5c(c6c(c4c3c2)C(=O)NC6=O)CCC5)cs1 [Compound 3t] | 32
CCCC(=O)NCc1nc(-c2ccc3[nH]c4c5c(c6c(c4c3c2)C(=O)NC6=O)CCC5)cs1 [Compound 3u] | 42
CCCCC(=O)NCc1nc(-c2ccc3[nH]c4c5c(c6c(c4c3c2)C(=O)NC6=O)CCC5)cs1 [Compound 3v] | 56
CC(C)(C)C(=O)OCc1nc(-c2ccc3[nH]c4c5c(c6c(c4c3c2)C(=O)NC6=O)CCC5)cs1 [Compound 3y] | 60
CS(=O)(=O)Cc1nc(-c2ccc3[nH]c4c5c(c6c(c4c3c2)C(=O)NC6=O)CCC5)cs1 [Compound 3z] | 38
COC(=O)C1CCCN1CC(=O)c1ccc2[nH]c3c4c(c5c(c3c2c1)C(=O)NC5=O)CCC4 (stereo not drawn) [Compound 4a] | 12
CC(C)(C)OC(=O)[C@@H]1CCCN1CC(=O)c1ccc2[nH]c3c4c(c5c(c3c2c1)C(=O)NC5=O)CCC4 [Compound 4b] | 12
O=C(CN1CCCC1C(=O)O)c1ccc2[nH]c3c4c(c5c(c3c2c1)C(=O)NC5=O)CCC4 (stereo not drawn) [Compound 4c] | 7
CC(C)(C)OC(=O)NCCNC(=O)CCC(=O)c1ccc2[nH]c3c4c(c5c(c3c2c1)C(=O)NC5=O)CCC4 [Compound 4d] | 16
NCCNC(=O)CCC(=O)c1ccc2[nH]c3c4c(c5c(c3c2c1)C(=O)NC5=O)CCC4 [Compound 4e] | 22
O=C(CCC(=O)N1CCOCC1)c1ccc2[nH]c3c4c(c5c(c3c2c1)C(=O)NC5=O)CCC4 [Compound 4f] | 13
O=C(CCC(=O)c1ccc2[nH]c3c4c(c5c(c3c2c1)C(=O)NC5=O)CCC4)NCCO [Compound 4g] | 9
CC(C)(C)OC(=O)[C@@H]1CCCN1C(=O)CCC(=O)c1ccc2[nH]c3c4c(c5c(c3c2c1)C(=O)NC5=O)CCC4 [Compound 4h] | 7
CCN(CC)C(=O)CCC(=O)c1ccc2[nH]c3c4c(c5c(c3c2c1)C(=O)NC5=O)CCC4 [Compound 4i] | 12
O=C(CCC(=O)N1CCCC1C(=O)O)c1ccc2[nH]c3c4c(c5c(c3c2c1)C(=O)NC5=O)CCC4 (stereo not drawn) [Compound 4j] | 2
O=C(O)c1nccnc1C(=O)c1ccc2[nH]c3c4c(c5c(c3c2c1)C(=O)NC5=O)CCC4 [Compound 4k] | 1
O=C1CCC(c2ccc3[nH]c4c5c(c6c(c4c3c2)C(=O)NC6=O)CCC5)=NN1 [Compound 4l] | 17
CN1N=C(c2ccc3[nH]c4c5c(c6c(c4c3c2)C(=O)NC6=O)CCC5)CCC1=O [Compound 4m] | 12
